Laboratory results taken from article PMC8869475 (Biomolecules, 2022).

Biological target: T1, Insulin-Degrading Enzyme (IDE) (Homo sapiens, UniProt P14735)
T1 sequence (P14735 42-1019): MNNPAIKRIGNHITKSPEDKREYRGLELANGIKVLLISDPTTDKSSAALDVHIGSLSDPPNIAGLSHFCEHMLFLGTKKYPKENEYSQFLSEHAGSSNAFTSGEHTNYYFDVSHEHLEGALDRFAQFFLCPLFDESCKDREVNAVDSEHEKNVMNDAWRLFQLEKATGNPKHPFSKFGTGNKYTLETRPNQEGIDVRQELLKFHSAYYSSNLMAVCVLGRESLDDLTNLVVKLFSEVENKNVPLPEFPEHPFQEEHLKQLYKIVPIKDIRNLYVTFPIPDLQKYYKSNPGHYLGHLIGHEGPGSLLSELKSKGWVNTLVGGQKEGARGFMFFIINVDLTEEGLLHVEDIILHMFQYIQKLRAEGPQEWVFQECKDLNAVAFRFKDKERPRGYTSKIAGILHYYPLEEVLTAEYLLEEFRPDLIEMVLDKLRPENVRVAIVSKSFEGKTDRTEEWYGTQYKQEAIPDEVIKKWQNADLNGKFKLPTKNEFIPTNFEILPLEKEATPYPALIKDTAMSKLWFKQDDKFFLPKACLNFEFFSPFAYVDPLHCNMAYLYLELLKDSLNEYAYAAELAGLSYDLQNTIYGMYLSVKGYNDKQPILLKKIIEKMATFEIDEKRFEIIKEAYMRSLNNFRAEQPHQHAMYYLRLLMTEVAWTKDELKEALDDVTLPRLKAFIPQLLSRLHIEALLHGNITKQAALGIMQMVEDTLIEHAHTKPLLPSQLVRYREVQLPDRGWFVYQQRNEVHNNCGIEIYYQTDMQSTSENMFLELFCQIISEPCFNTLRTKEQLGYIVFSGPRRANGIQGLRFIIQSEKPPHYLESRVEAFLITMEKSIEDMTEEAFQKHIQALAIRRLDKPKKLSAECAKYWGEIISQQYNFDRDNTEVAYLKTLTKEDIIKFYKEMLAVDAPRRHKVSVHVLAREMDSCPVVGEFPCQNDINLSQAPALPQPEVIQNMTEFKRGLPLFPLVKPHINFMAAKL
Assay: fluorogenic peptide hydrolysis by purified IDE, two-site kinetic fit; LC-MS of insulin hydrolysis (about […] decrease)
Format: biochemical

A Kd of 130 nM was found for CC(C)C[C@H](NC(=O)[C@H](CCc1ccccc1)NC(=O)CN1CCOCC1)C(=O)N[C@@H](Cc1ccccc1)C(=O)N[C@@H](CC(C)C)C(=O)[C@@]1(C)CO1 [CFZ, Carfilzomib] in this work.
